Publication PMC8770593 (Nature Communications, 2022)
Numbering of substitutions follows the chain as printed. “And” between values parts separate entries of the source, which are not always exact repeats. Equal entries are not always repeated. Where two headings read alike, the source gives them in different places.

Experiments:
[1] = system: stabilized α1BAR mutant with L334 and L334F back-mutant; details: saturation binding, whole E. coli cells, L334 vs L334F back-mutant
wild-type α1BAR = target: T1, wild-type α1BAR (Homo sapiens, UniProt P35368); experiment: Agonist-induced IP1 accumulation (Gq signaling, HTRF IP-One) in transfected HEK293T/17 cells; format: cell-based; details: reference construct
T1 construct: harboring the wild-type helix 8 and the full-length C-terminus as well as the entire ICL3; expressed in transfected cells; host or cells: HEK293T/17
Experimental: (§1) Signaling assays were performed with receptor constructs harboring the wild-type helix 8 and the full-length C-terminus as well as the entire ICL3. Agonist-induced IP1 accumulation was measured in transiently transfected HEK293T/17 cells, as described before. […] IP1 accumulation was measured using the HTRF IP-One kit (Cisbio) according to the manufacturer’s protocol on a SPARK fluorescence plate reader (Tecan).

α1BAR D191^ECL2→Y = target: T2, α1BAR D191^ECL2→Y (Homo sapiens, UniProt P35368, D191Y); experiment: as above; format: cell-based; details: for IP1 concentration: D191Y, listed as PE
T2 construct: harboring the wild-type helix 8 and the full-length C-terminus as well as the entire ICL3; expressed in transfected cells; host or cells: HEK293T/17
T2 sequence (P35368 1-520 D191Y): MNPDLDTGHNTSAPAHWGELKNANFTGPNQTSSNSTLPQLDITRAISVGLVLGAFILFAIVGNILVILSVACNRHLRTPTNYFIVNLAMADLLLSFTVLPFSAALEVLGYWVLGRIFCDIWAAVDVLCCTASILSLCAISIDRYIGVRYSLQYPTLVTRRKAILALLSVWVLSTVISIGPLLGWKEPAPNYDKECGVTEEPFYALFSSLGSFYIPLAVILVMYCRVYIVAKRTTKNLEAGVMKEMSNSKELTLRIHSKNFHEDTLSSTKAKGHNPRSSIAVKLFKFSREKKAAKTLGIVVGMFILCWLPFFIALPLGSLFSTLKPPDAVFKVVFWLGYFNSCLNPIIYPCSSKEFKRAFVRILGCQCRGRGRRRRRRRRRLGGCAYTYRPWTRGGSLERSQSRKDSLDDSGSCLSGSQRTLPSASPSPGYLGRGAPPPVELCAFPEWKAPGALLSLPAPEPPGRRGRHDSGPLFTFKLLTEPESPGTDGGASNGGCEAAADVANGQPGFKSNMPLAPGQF
Experimental: as §1

α1BAR E194^ECL2→V = target: T3, α1BAR E194^ECL2→V (Homo sapiens, UniProt P35368, E194V); experiment: as above; format: cell-based
T3 construct: harboring the wild-type helix 8 and the full-length C-terminus as well as the entire ICL3; expressed in transfected cells; host or cells: HEK293T/17
Experimental: as §1

α1BAR I116^3.23→T = target: T4, α1BAR I116^3.23→T (Homo sapiens, UniProt P35368, I116T); experiment: as above; format: cell-based
T4 construct: harboring the wild-type helix 8 and the full-length C-terminus as well as the entire ICL3; expressed in transfected cells; host or cells: HEK293T/17
Experimental: as §1

α1BAR P349^7.54→L = target: T5, α1BAR P349^7.54→L (Homo sapiens, UniProt P35368, P349L); experiment: as above; format: cell-based
T5 construct: receptor constructs harboring the wild-type helix 8 and the full-length C-terminus as well as the entire ICL3; expressed in transfected cells; host or cells: HEK293T/17
Experimental: as §1

α1BAR S168^4.48→C = target: T6, α1BAR S168^4.48→C (Homo sapiens, UniProt P35368, S168C); experiment: as above; format: cell-based; details: for IP1 concentration: S168C, listed as PE
T6 construct: harboring the wild-type helix 8 and the full-length C-terminus as well as the entire ICL3; expressed in transfected cells; host or cells: HEK293T/17
T6 sequence (P35368 1-520 S168C): T2 sequence (P35368 1-520 D191Y) with S168C, Y191D
Experimental: as §1

α1BAR S95^2.54→C = target: T7, α1BAR S95^2.54→C (Homo sapiens, UniProt P35368, S95C); experiment: as above; format: cell-based; details: for IP1 concentration: S95C, listed as PE
T7 construct: harboring the wild-type helix 8 and the full-length C-terminus as well as the entire ICL3; expressed in transfected cells; host or cells: HEK293T/17
T7 sequence (P35368 1-520 S95C): T2 sequence (P35368 1-520 D191Y) with S95C, Y191D
Experimental: as §1

α1BAR T295^6.36→M = target: T8, α1BAR T295^6.36→M (Homo sapiens, UniProt P35368, T295M); experiment: as above; format: cell-based
T8 construct: harboring the wild-type helix 8 and the full-length C-terminus as well as the entire ICL3; expressed in transfected cells; host or cells: HEK293T/17
Experimental: as §1

α1BAR V124^3.31→M = target: T9, α1BAR V124^3.31→M (Homo sapiens, UniProt P35368, V124M); experiment: as above; format: cell-based
T9 construct: harboring the wild-type helix 8 and the full-length C-terminus as well as the entire ICL3; expressed in transfected cells; host or cells: HEK293T/17
Experimental: as §1

α1BAR V333^7.38→L = target: T10, α1BAR V333^7.38→L (Homo sapiens, UniProt P35368, V333L); experiment: as above; format: cell-based
T10 construct: harboring the wild-type helix 8 and the full-length C-terminus as well as the entire ICL3; expressed in transfected cells; host or cells: HEK293T/17
Experimental: as §1

α1BAR G183^4.63→V = target: T11, α1BAR G183^4.63→V (Homo sapiens, UniProt P35368, G183V); experiment: as above; format: cell-based
T11 construct: harboring the wild-type helix 8 and the full-length C-terminus as well as the entire ICL3; expressed in transfected cells; host or cells: HEK293T/17
Experimental: (§2) Signaling assays were performed with receptor constructs harboring the wild-type helix 8 and the full-length C-terminus as well as the entire ICL3. Agonist-induced IP1 accumulation was measured in transiently transfected HEK293T/17 cells, as described before. Twenty-four hours after transfection, cells were washed with phosphate-buffered saline (PBS), detached with trypsin-EDTA (Sigma), and resuspended in assay buffer (10 mM HEPES pH 7.4, 1 mM CaCl2, 0.5 mM MgCl2, 4.2 mM KCl, 146 mM NaCl, 50 mM LiCl, 5.5 mM glucose, 0.1% (w/v) BSA). […] IP1 accumulation was measured using the HTRF IP-One kit (Cisbio) according to the manufacturer’s protocol on a SPARK fluorescence plate reader (Tecan).

α1BAR S150^34.50→Y = target: T12, α1BAR S150^34.50→Y (Homo sapiens, UniProt P35368, S150Y); experiment: as above; format: cell-based
T12 construct: harboring the wild-type helix 8 and the full-length C-terminus as well as the entire ICL3; expressed in transfected cells; host or cells: HEK293T/17
Experimental: as §2

[2] = system: α1BAR expressed in mammalian cells; details: ref Docherty, J. R., Eur. J. Pharmacol. 855, 305-320 (2019), cited from earlier work; for Kd: α1BAR expressed in mammalian cells
[3] = system: α1BAR expressed in E. coli; parameters: method as in ref Schuster, M. et al., Biochim. Biophys. Acta Biomembr. 1862, 183354 (2020); details: ref Schuster, M. et al., Biochim. Biophys. Acta Biomembr. 1862, 183354 (2020), read-out: affinity; cited from earlier work

T3 sequence (P35368 whole entry E194V): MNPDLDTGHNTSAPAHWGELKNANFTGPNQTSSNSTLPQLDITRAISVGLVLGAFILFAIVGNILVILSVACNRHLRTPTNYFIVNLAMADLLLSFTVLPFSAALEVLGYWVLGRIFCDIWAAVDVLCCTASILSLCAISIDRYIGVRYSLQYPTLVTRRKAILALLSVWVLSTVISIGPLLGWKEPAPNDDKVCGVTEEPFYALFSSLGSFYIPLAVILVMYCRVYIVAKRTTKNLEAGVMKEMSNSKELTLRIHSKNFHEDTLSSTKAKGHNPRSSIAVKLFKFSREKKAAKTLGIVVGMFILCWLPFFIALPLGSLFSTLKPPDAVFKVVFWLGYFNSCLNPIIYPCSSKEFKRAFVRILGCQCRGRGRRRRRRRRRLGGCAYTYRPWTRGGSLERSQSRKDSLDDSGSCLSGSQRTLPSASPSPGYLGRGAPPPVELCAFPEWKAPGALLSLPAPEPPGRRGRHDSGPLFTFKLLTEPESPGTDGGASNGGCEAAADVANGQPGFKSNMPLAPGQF
T11 sequence (P35368 whole entry G183V): as the sequence (P35368 whole entry E194V) above, with G183V, V194E counted along it
T8 sequence (P35368 whole entry T295M): as the sequence (P35368 whole entry E194V) above, with V194E, T295M counted along it
T5 sequence (P35368 whole entry P349L): as the sequence (P35368 whole entry E194V) above, with V194E, P349L counted along it
T12 sequence (P35368 whole entry S150Y): as the sequence (P35368 whole entry E194V) above, with S150Y, V194E counted along it
T1 sequence (P35368 whole entry): as the sequence (P35368 whole entry E194V) above, with V194E counted along it
T10 sequence (P35368 whole entry V333L): as the sequence (P35368 whole entry E194V) above, with V194E, V333L counted along it
T9 sequence (P35368 whole entry V124M): as the sequence (P35368 whole entry E194V) above, with V124M, V194E counted along it
T4 sequence (P35368 whole entry I116T): as the sequence (P35368 whole entry E194V) above, with I116T, V194E counted along it

## COc1cc2nc(N3CCN(C(=O)c4ccco4)CC3)nc(N)c2cc1OC [3H-prazosin]
[1]
  impact of the L334/F334 mutation on affinity: only a minor impact

## CNC[C@H](O)c1cccc(O)c1 [Phenylephrine]
wild-type α1BAR
  Emax: 100%
α1BAR D191^ECL2→Y; [PE] -4 log M
  IP1 concentration: 519.698 and 441.949 and 662.352 and 730.409 and 630.141 and 710.683
α1BAR D191^ECL2→Y; [PE] -4.69897 log M
  IP1 concentration: 370.913 and 393.347 and 353.075 and 528.612 and 529.351 and 631.077
α1BAR D191^ECL2→Y; [PE] -5.39794 log M
  IP1 concentration: 322.315 and 263.99 and 343.654 and 369.218 and 447.164 and 499.2
α1BAR D191^ECL2→Y; HEK293T/17, IP1 accumulation
  Emax: 89.6 ± 4.7%
α1BAR E194^ECL2→V; E194V, [PE] -4 log M, listed as PE
  IP1 concentration: 499.282 and 565.119 and 803.974 and 817.17 and 667.593 and 781.933
α1BAR E194^ECL2→V; HEK293T/17, IP1 accumulation
  Emax: 85.4 ± 7.4%
α1BAR I116^3.23→T
  Emax: 71.2 ± 6.4%
α1BAR P349^7.54→L
  Emax: 27.3 ± 4.1%
α1BAR S168^4.48→C; HEK293T/17, IP1 accumulation
  Emax: 96.8 ± 8%
α1BAR S168^4.48→C; [PE] -4 log M
  IP1 concentration: 678.88 and 634.809 and 694.6 and 789.857 and 654.693 and 717.983
α1BAR S168^4.48→C; [PE] -4.69897 log M
  IP1 concentration: 546.031 and 536.624 and 592.13 and 637.69 and 619.808 and 699.597
α1BAR S168^4.48→C; [PE] -5.39794 log M
  IP1 concentration: 630.294 and 403.102 and 536.003 and 572.191 and 548.559 and 641.7
α1BAR S168^4.48→C; [PE] -6.09691 log M
  IP1 concentration: 373.984 and 293.041 and 368.158 and 357.195 and 468.9 and 570.413
α1BAR S168^4.48→C; [PE] -6.79588 log M
  IP1 concentration: 213.187 and 230.01 and 327.882 and 336.101 and 329.963 and 356.634
α1BAR S95^2.54→C; HEK293T/17, IP1 accumulation
  Emax: 71.9 ± 5.7%
α1BAR S95^2.54→C; [PE] -4 log M
  IP1 concentration: 377.435 and 437.765 and 593.664 and 690.124 and 481.642 and 456.558
α1BAR S95^2.54→C; [PE] -4.69897 log M
  IP1 concentration: 323.191 and 422.658 and 500.281 and 586.924 and 403.917 and 432.8
α1BAR S95^2.54→C; [PE] -5.39794 log M
  IP1 concentration: 269.373 and 257.6 and 377.64 and 428.644 and 333.33 and 361.512
α1BAR T295^6.36→M
  Emax: 50.7 ± 5.9%
α1BAR V124^3.31→M
  Emax: 84.2 ± 6.3%
α1BAR V333^7.38→L
  Emax: 79.8 ± 5.2%
α1BAR G183^4.63→V
  Emax: 9 ± 18.5%
α1BAR S150^34.50→Y
  Emax: 13.4 ± 1.7%

## COc1cc2nc(N3CCN(C(=O)c4ccco4)CC3)nc(N)c2cc1OC [prazosin]
[2]; radioligand binding
  affinity as pK value (RLBA): 9.26–10.3
[2]; read-out: affinity range reported in the literature
  Kd: 0.05 to 0.55 nM
[2]; read-out: mean affinity reported in the literature
  Kd: 0.11 nM
[3]
  Kd: 0.074 nM
